Like-named read-outs stand apart in the source and are kept apart here.
Key:
Assay type in all cases: cell-based
E. coli NCIMB 8545 = assay: Microstatic activity, MIC in tryptone soy broth; conditions: 48 hours; for MIC: Escherichia coli, NCIMB8545, 30° C.
Protocol: (§1) For this, in each case a 40 percent strength by weight solution of a diol in propylene glycol was prepared at 60° C. This solution was diluted with a double-strength soy solution (double-strength tryptone soy broth) as nutrient medium in the volume ratio 1:1. Further dilution with soy solution produced solutions with the following concentrations: 400 000 ppm (40%), 200 000 ppm (20%), 100 000 ppm (10%), 50 000 ppm (5%), 25 000 ppm (2.5%), 12 500 ppm (1.25%), 6250 ppm (0.625%), 3125 ppm (0.3125%). Pure soy solution was used as negative control. The positive control used was a solution of 5 ml of soy solution which has been treated with 0.1 ml of the respective microorganism. The test solutions consisted of 5 ml of the above-described soy solutions of the diols in the particular concentration which have been mixed with 0.1 ml of the respective microorganism. The samples and controls were incubated in the case of the bacteria at 30° C. for 48 hours, and in the case of fungi over 5 days at 25° C. In each case, the MIC (Minimum Inhibitory Concentration) value was determined. This value indicates the minimum concentration above which the growth of the microorganisms was visibly hindered compared to the corresponding sample without addition of the diol. […] For example, this was evident from the occurrence of clouding or visible growth of the microorganism. […] The MIC value stated is a range between the next higher concentration of a positive test and the same and/or lower concentration of a first negative test.

S. aureus NCIMB 9578 = assay: Microstatic activity, MIC in tryptone soy broth; conditions: Staphylococcus aureus, NCIMB9578, 30° C., 48 hours
Protocol: as §1

A. niger IMI 149007 = assay: Microstatic activity, MIC in tryptone soy broth; conditions: Aspergillus niger, IMI149007, 120 h, 25° C., 5 days
Protocol: as §1

P. vulgaris NCIMB 4175 = assay: Microstatic activity, MIC in tryptone soy broth; conditions: Proteus vulgaris, NCIMB4175, 30° C., 48 hours
Protocol: as §1

C. albicans NCPF 3179 = assay: Microstatic activity, MIC in tryptone soy broth; conditions: Candida albicans, NCPF3179, 120 h, 25° C., 5 days
Protocol: as §1

[1] = system: P. aeruginosa NCIMB 10421; assay: Microstatic activity, MIC in tryptone soy broth; conditions: Pseudomonas aeruginosa, NCIMB10421, 30° C., 48 hours
Protocol: as §1

[2] = system: series of tested microorganisms (bacteria and fungi); assay: Microstatic activity, highest MIC from the series of tested microorganisms; conditions: highest measured MIC from the series of tested microorganisms
Protocol: The following microorganisms were used;to test the biocidal effect against various bacteria and fungi: In each case, the MIC (Minimum Inhibitory Concentration) value was determined. This value indicates the minimum concentration above which the growth of the microorganisms was visibly hindered compared to the corresponding sample without addition of the diol. The MIC value stated is a range between the next higher concentration of a positive test and the same and/or lower concentration of a first negative test. In the last line of each of the tables below, a “maximum” value is listed. This value indicates the highest measured MIC value in each case from the series of tested microorganisms.

S. aureus ATCC 6538 = assay: Preservation stress test, example formulation 1 (standard emulsion O/W); conditions: 1% active substance
Protocol: (§2) Preservation stress tests (PSTs) were carried out in order to determine the preserving activity of the diols. In the preservation stress test, this is simulated through artificial loadings with microorganisms. These can either be inoculated as mixed population or individually in mixtures independent of one another. The inoculated product samples are incubated under defined conditions and, after defined times, samples are taken in order to determine the germ loading. In the case of adequate preservation, the number of microorganisms should, depending on the type, either decrease or remain constant in order to satisfy the requirements specified, e.g. in Ph. Eur. 6.0. To investigate the preserving effect of the diols, application-typical amounts of the diols were incorporated into example formulations. […] [table] These example formulations were used to prepare various mixtures which each comprised 1% active substance or comprised water instead of the active substance as placebo mixtures. These mixtures were in each case inoculated with the test germs such that a germ loading of 10^5-10^6 CFU/g was present in the test mixture. The bacteria were either used individually for the inoculation or as a mixed culture. To determine the starting germ count, immediately after inoculation, an aliquot was taken, diluted in dilution medium (phosphate buffer, 0.07 molar pH 7.4 (+/−0.2), with 1% Tween 80+0.3% soya lecithin), and the surviving germ count was determined in the dilution stages 10^−1 to 10^−3. The inoculated product samples then incubated for a total of 28 d at 20-25° C. After 2 d, 7 d, 14 d and after 28 d, aliquots were taken and diluted in dilution medium (phosphate buffer, 0.07 molar pH 7.4 (+/−0.2), with 1% Tween 80+0.3% soya lecithin). The surviving germ counts were determined in the dilution stages 10^−1 to 10^−4. The reference point taken for determining the reduction in germ count was the respective initial value of the sample. The results were given as logarithmic reductions.

P. aeruginosa ATCC 15442 = assay: as above; conditions: 1% active substance
Protocol: as §2

C. albicans ATCC 10231 = assay: as above; conditions: 1% active substance
Protocol: as §2

E. coli ATCC 10536 = assay: as above; conditions: 1% active substance
Protocol: as §2

A. niger ATCC 16404 = assay: as above; conditions: 1% active substance
Protocol: as §2

[3] = lower limit of MIC range, read-out: MIC value (ppm of diol), from
[4] = upper limit of MIC range, read-out: MIC value (ppm of diol), to
[5] = lower limit, read-out: Maximum MIC value (ppm of diol), from
[6] = upper limit, read-out: Maximum MIC value (ppm of diol), to

SMILES	MIC (E. coli NCIMB 8545; [3]) [mg/mL]	MIC (E. coli NCIMB 8545; [4]) [mg/mL]	MIC (S. aureus NCIMB 9578; [3]) [mg/mL]	MIC (S. aureus NCIMB 9578; [4]) [mg/mL]	MIC (A. niger IMI 149007; [3]) [mg/mL]	MIC (A. niger IMI 149007; [4]) [mg/mL]	MIC (P. vulgaris NCIMB 4175; [3]) [mg/mL]	MIC (P. vulgaris NCIMB 4175; [4]) [mg/mL]	MIC (C. albicans NCPF 3179; [3]) [mg/mL]	MIC (C. albicans NCPF 3179; [4]) [mg/mL]	MIC [1, 3] [mg/mL]	MIC [1, 4] [mg/mL]	MIC [2, 5] [mg/mL]	MIC [2, 6] [mg/mL]	also measured
OCC1(CO)CCCCCCC1 [DMCO, 1,1-dimethylolcyclooctane]	> 3.12	≤ 6.25	> 6.25	≤ 12.5	> 6.25	≤ 12.5	> 6.25	≤ 12.5	> 6.25	≤ 12.5	> 12.5	≤ 25	> 12.5	≤ 25	
CCCCC(O)CO (centres unmarked) [1,2-Hexanediol, 1,2-hexanediol]															Microbicidal activity given as logarithmic reduction in germ count (S. aureus ATCC 6538; 48 h): 1 log. Red.; Microbicidal activity given as logarithmic reduction in germ count (S. aureus ATCC 6538; 7 d): 1 log. Red.; Microbicidal activity given as logarithmic reduction in germ count (S. aureus ATCC 6538; 14 d): ≧3 log. Red.; Microbicidal activity given as logarithmic reduction in germ count (S. aureus ATCC 6538; 28 d): 5 log. Red.; Microbicidal activity given as logarithmic reduction in germ count (P. aeruginosa ATCC 15442; 48 h): 0 log. Red.; Microbicidal activity given as logarithmic reduction in germ count (P. aeruginosa ATCC 15442; 7 d): 1 log. Red.; Microbicidal activity given as logarithmic reduction in germ count (P. aeruginosa ATCC 15442; 14 d): 1 log. Red.; Microbicidal activity given as logarithmic reduction in germ count (P. aeruginosa ATCC 15442; 28 d): ≧3 log. Red.; Microbicidal activity given as logarithmic reduction in germ count (C. albicans ATCC 10231; 48 h): 0 log. Red.; Microbicidal activity given as logarithmic reduction in germ count (C. albicans ATCC 10231; 7 d): 0 log. Red.; Microbicidal activity given as logarithmic reduction in germ count (C. albicans ATCC 10231; 14 d): 0 log. Red.; Microbicidal activity given as logarithmic reduction in germ count (C. albicans ATCC 10231; 28 d): 1 log. Red.; Microbicidal activity given as logarithmic reduction in germ count (E. coli ATCC 10536; 48 h): 0 log. Red.; Microbicidal activity given as logarithmic reduction in germ count (E. coli ATCC 10536; 7 d): 1 log. Red.; Microbicidal activity given as logarithmic reduction in germ count (E. coli ATCC 10536; 14 d): 2 log. Red.; Microbicidal activity given as logarithmic reduction in germ count (E. coli ATCC 10536; 28 d): ≧3 log. Red.; Microbicidal activity given as logarithmic reduction in germ count (A. niger ATCC 16404; 48 h): 0 log. Red.; Microbicidal activity given as logarithmic reduction in germ count (A. niger ATCC 16404; 7 d): 0 log. Red.; Microbicidal activity given as logarithmic reduction in germ count (A. niger ATCC 16404; 14 d): 0 log. Red.; Microbicidal activity given as logarithmic reduction in germ count (A. niger ATCC 16404; 28 d): 0 log. Red.
CC(O)CC(C)O (centres unmarked) [2,4-Pentanediol, 2,4-pentanediol, reference compound]	> 50	≤ 100	> 50	≤ 100			> 50	≤ 100	> 50	≤ 100	> 50	≤ 100			
CC(O)CO (centres unmarked) [Propylene glycol, propylene glycol, reference compound]							> 100				> 100				
OCC1(CO)CC/C=C\CCC1 [DMCOE, 1,1-dimethylolcyclooct-4-ene]	> 3.12	≤ 6.25	> 6.25	≤ 12.5	> 12.5	≤ 25	> 3.12	≤ 6.25	> 12.5	≤ 25	> 12.5	≤ 25	> 12.5	≤ 25	
OCC1(CO)CCCCC1 [DMCH, 1,1-dimethylolcyclohexane]	> 6.25	≤ 12.5	> 12.5	≤ 25	> 25	≤ 50	> 12.5	≤ 25	> 25	≤ 50	> 12.5	≤ 25	> 25	≤ 50	

The next lines start with results.

MIC (E. coli NCIMB 8545; [3]) [mg/mL]	MIC (E. coli NCIMB 8545; [4]) [mg/mL]	MIC (S. aureus NCIMB 9578; [3]) [mg/mL]	MIC (S. aureus NCIMB 9578; [4]) [mg/mL]	MIC (A. niger IMI 149007; [3]) [mg/mL]	MIC (A. niger IMI 149007; [4]) [mg/mL]	MIC (P. vulgaris NCIMB 4175; [3]) [mg/mL]	MIC (P. vulgaris NCIMB 4175; [4]) [mg/mL]	MIC (C. albicans NCPF 3179; [3]) [mg/mL]	MIC (C. albicans NCPF 3179; [4]) [mg/mL]	MIC [1, 3] [mg/mL]	MIC [1, 4] [mg/mL]	MIC [2, 5] [mg/mL]	MIC [2, 6] [mg/mL]	SMILES	also measured
	≤ 3.12	> 12.5	≤ 25	> 50	≤ 100	> 3.12	≤ 6.25	> 50	≤ 100	> 25	≤ 50	> 50	≤ 100	CC(CO)(CO)c1ccccc1 [MPPD, 2-methyl-2-phenylpropane-1,3-diol]	MIC value (ppm of diol), from (E. coli NCIMB 8545; 30° C., lower limit of MIC range): >0 ppm
> 12.5	≤ 25	> 25	≤ 50	> 50	≤ 100	> 25	≤ 50	> 50	≤ 100	> 12.5	≤ 25	> 50	≤ 100	CCC(C)(CO)CO [EMPD, 2-ethyl-2-methylpropane-1,3-diol]	
> 25	≤ 50	> 50	≤ 100	> 12.5	≤ 25	> 50	≤ 100	> 25	≤ 50	> 100		> 100		CC(C)CCC(CO)(CO)C(C)C [IMBPD, 2-isopropyl-2-(3-methylbutyl)propane-1,3-diol]	
> 6.25	≤ 12.5	> 12.5	≤ 25	> 12.5	≤ 25	> 3.12	≤ 6.25	> 25	≤ 50	> 50	≤ 100	> 50	≤ 100	CCCCC(CC)(CO)CO [BEPD, 2-butyl-2-ethylpropane-1,3-diol]	

From patent US20120152149A1, “USE OF 1,3-DIOLS AS BIOCIDES” (BASF SE, priority 2009, published 2012)
